Results on 21 molecules are retold here after patent EP2970215B1, “PYRROLIDINE DERIVATIVES, PHARMACEUTICAL COMPOSITIONS CONTAINING THEM, AND THEIR USE IN THERAPY” (AbbVie Deutschland GmbH & Co. KG, priority 2013, dated 2014).

The target in the assay is T1, human GlyT1c transporter (Homo sapiens, UniProt P48067).
T1 construct: expressed in transfected cells; host or cells: CHO cells (recombinant; line hGlyT1c_5_CHO is named for the uptake assay)
T1 sequence (P48067 1-706): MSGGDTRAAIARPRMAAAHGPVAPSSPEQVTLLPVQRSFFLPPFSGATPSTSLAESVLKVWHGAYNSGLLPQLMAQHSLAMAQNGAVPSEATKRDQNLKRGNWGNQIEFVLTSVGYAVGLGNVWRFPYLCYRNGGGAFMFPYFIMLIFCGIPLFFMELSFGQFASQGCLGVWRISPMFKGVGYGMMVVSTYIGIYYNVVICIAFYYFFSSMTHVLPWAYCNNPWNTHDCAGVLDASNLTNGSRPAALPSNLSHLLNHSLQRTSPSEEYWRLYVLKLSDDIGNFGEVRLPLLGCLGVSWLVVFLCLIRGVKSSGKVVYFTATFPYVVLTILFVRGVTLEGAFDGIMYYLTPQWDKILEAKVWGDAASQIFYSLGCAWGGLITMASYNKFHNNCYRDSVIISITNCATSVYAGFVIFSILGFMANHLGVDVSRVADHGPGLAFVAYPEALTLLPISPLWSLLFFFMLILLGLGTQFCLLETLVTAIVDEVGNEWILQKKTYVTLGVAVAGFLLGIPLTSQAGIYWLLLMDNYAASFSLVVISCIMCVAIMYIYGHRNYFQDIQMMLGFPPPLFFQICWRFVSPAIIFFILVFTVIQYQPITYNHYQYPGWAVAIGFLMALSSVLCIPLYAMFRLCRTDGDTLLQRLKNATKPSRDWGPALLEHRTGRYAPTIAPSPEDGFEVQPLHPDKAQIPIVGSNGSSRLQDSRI
Briefly: Radioligand binding assay using recombinant CHO cell membranes expressing human GlyT1. The note with it: radioligand binding to human GlyT1c transporter-expressing membranes. From the text:
2. Radioligand binding assays using recombinant CHO cell membranes expressing human GlyT1: […]
The term Ki denotes the dissociation constant of the complex between target and ligand, obtained from inhibition or displacement. For `CCCCCCN[C@@H]1CN(S(=O)(=O)c2cn(C)nn2)C[C@H]1c1ncccc1F` (relative stereo) [Example 811, Trans-4-(3-fluoropyridin-2-yl)-N-hexyl-1-[(1-methyl-1H-1,2,3-triazol-4-yl)sulfonyl]pyrrolidin-3-amine], the inhibitory constant (Ki) is at most 0.1 µM.

Regarding `Cn1cnc(S(=O)(=O)N2C[C@@H](CNc3cccc(C(F)(F)F)c3)[C@H](c3ccc(F)cc3)C2)c1` (relative stereo) [Example 335, N-({Trans-4-(4-fluorophenyl)-1-[(1-methyl-1H-imidazol-4-yl)sulfonyl]pyrrolidin-3-yl}methyl)-3-(trifluoromethyl)aniline], the Ki was at most 1 µM. As for `Cn1cnc(S(=O)(=O)N2C[C@@H](NCc3ccccc3)[C@H](c3ccc(F)cc3)C2)c1` (relative stereo) [Example 148, trans-N-benzyl-4-(4-fluorophenyl)-1-[(1-methyl-1H-imidazol-4-yl)sulfonyl]pyrrolidin-3-amine], the inhibition constant Ki was at most 10 µM. The value for `CCCOCCN[C@H]1CN(S(=O)(=O)c2cn(C)cn2)C[C@@H]1c1ccccc1` [Example 609, (3R,4S)-1-[(1-methyl-1H-imidazol-4-yl)sulfonyl]-4-phenyl-N-(2-propoxyethyl)pyrrolidin-3-amine] was at most 1 µM. The value for `Cn1cnc(S(=O)(=O)N2C[C@@H]([C@@H]3CCCOC3)[C@H](Nc3cccc(OC(F)(F)F)c3)C2)c1` (mixture of isomers) [Example 784, trans-1-[(1-methyl-1H-imidazol-4-yl)sulfonyl]-4-[(3S)-tetrahydro-2H-pyran-3-yl]-N-[3-(trifluoromethoxy)phenyl]pyrrolidin-3-amine] was at most 0.1 µM; that for `Cc1nc(CN[C@H]2CN(S(=O)(=O)c3cn(C)cn3)C[C@@H]2c2ccccc2)cs1` [Example 533, (3R,4S)-1-[(1-methyl-1H-imidazol-4-yl)sulfonyl]-N-[(2-methyl-1,3-thiazol-4-yl)methyl]-4-phenylpyrrolidin-3-amine] was at most 10 µM. The result for `Cn1cnc(S(=O)(=O)N2C[C@@H](NCc3cccc(C#N)c3)[C@H](c3ccc(F)cc3)C2)c1` (relative stereo) [Example 152, 3-[({trans-4-(4-fluorophenyl)-1-[(1-methyl-1H-imidazol-4-yl)sulfonyl]pyrrolidin-3-yl}amino)methyl]benzonitrile] reads at most 1 µM; that for `COc1ccc([C@@H]2CN(S(=O)(=O)c3cn(C)cn3)C[C@H]2NC(=O)c2cccc(C(F)(F)F)c2Cl)cc1` (relative stereo) [Example 2, 2-chloro-N-{trans-4-(4-methoxyphenyl)-1-[(1-methyl-1H-imidazol-4-yl)sulfonyl]pyrrolidin-3-yl}-3-(trifluoromethyl)benzamide], at most 1 µM; that for `Cn1cnc(S(=O)(=O)N2C[C@@H](NCc3cccc(F)c3)[C@H](c3ccc(F)cc3)C2)c1` (relative stereo) [Example 264, trans-N-(3-fluorobenzyl)-4-(4-fluorophenyl)-1-[(1-methyl-1H-imidazol-4-yl)sulfonyl]pyrrolidin-3-amine], at most 1 µM. With `Cn1cnc(S(=O)(=O)N2C[C@H](Nc3ccc(F)c(-c4ccncc4)c3)[C@@H](c3ccc(F)cc3)C2)c1` [Example 746, (3R,4S)-4-(4-fluorophenyl)-N-[4-fluoro-3-(pyridin-4-yl)phenyl]-1-[(1-methyl-1H-imidazol-4-yl)sulfonyl]pyrrolidin-3-amine], the Ki is at most 0.01 µM. The value for `Cn1cnc(S(=O)(=O)N2C[C@@H](COc3ccc(F)c(C(F)(F)F)c3)[C@H](c3ccc(F)cc3)C2)c1` (relative stereo) [Example 295, 4-{[trans-3-(4-fluorophenyl)-4-{[4-fluoro-3-(trifluoromethyl)phenoxy]methyl}pyrrolidin-1-yl]sulfonyl}-1-methyl-1H-imidazole] was at most 0.1 µM; that for `Cc1nn(C(F)F)c(C)c1S(=O)(=O)N1C[C@@H](NC(=O)c2cccc(C(F)(F)F)c2Cl)[C@H](c2ccccc2)C1` (relative stereo) [Example 39, 2-chloro-N-[trans-1-{[1-(difluoromethyl)-3,5-dimethyl-1H-pyrazol-4-yl]sulfonyl}-4-phenylpyrrolidin-3-yl]-3-(trifluoromethyl)benzamide] was at most 10 µM. The result for `Cn1cnc(S(=O)(=O)N2C[C@H](NCc3ccc(C(F)(F)F)o3)[C@@H](c3ccc(F)cc3)C2)c1` [Example 391, (3R,4S)-4-(4-fluorophenyl)-1-[(1-methyl-1H-imidazol-4-yl)sulfonyl]-N-{[5-(trifluoromethyl)furan-2-yl]methyl}pyrrolidin-3-amine] reads at most 0.1 µM; that for `COc1ccc(S(=O)(=O)N2C[C@@H](Nc3cccc(C#N)c3)[C@H](c3ccccc3)C2)cc1` (relative stereo) [Example 137, 3-({trans-1-[(4-methoxyphenyl)sulfonyl]-4-phenylpyrrolidin-3-yl}amino)benzonitrile], at most 10 µM. Turning to `Cn1cnc(S(=O)(=O)N2C[C@@H](C(=O)Nc3cc(Cl)cc(Cl)c3)[C@H](c3ccc(F)cc3)C2)c1` (relative stereo) [Example 244, Trans-N-(3,5-dichlorophenyl)-4-(4-fluorophenyl)-1-[(1-methyl-1H-imidazol-4-yl)sulfonyl]pyrrolidine-3-carboxamide], the Ki is at most 1 µM. With `Cn1cnc(S(=O)(=O)N2C[C@@H](Nc3ccc(F)cc3)[C@H](c3ccc(F)cc3)C2)c1` (relative stereo) [Example 92, trans-N,4-bis(4-fluorophenyl)-1-[(1-methyl-1H-imidazol-4-yl)sulfonyl]pyrrolidin-3-amine], the Ki was at most 0.1 µM. As for `Cn1cnc(S(=O)(=O)N2C[C@@H](Nc3ccc(Cl)c(Cl)c3)[C@H](c3ccc(F)cc3)C2)c1` (relative stereo) [Example 161, trans-N-(3,4-dichlorophenyl)-4-(4-fluorophenyl)-1-[(1-methyl-1H-imidazol-4-yl)sulfonyl]pyrrolidin-3-amine], the Ki is at most 1 µM. For `Cn1cnc(S(=O)(=O)N2C[C@@H](CNc3ccc(Cl)c(OC(F)(F)F)c3)[C@H](c3ccc(F)cc3)C2)c1` (relative stereo) [Example 377, 4-chloro-N-({trans-4-(4-fluorophenyl)-1-[(1-methyl-1H-imidazol-4-yl)sulfonyl]pyrrolidin-3-yl}methyl)-3-(trifluoromethoxy)aniline], the Ki is at most 1 µM. For the molecule `Cn1cnc(S(=O)(=O)N2C[C@H](Nc3cc(Cl)ncn3)[C@@H](c3ccccc3)C2)c1` [Example 606, 6-chloro-N-{(3R,4S)-1-[(1-methyl-1H-imidazol-4-yl)sulfonyl]-4-phenylpyrrolidin-3-yl}pyrimidin-4-amine], the Ki is at most 0.1 µM. The value for `Cn1cnc(S(=O)(=O)N2C[C@@H](Nc3cccc(OC(F)(F)F)c3)[C@H](C3CCCCC3)C2)c1` (relative stereo) [Example 425, Trans-4-cyclohexyl-1-[(1-methyl-1H-imidazol-4-yl)sulfonyl]-N-[3-(trifluoromethoxy)phenyl]pyrrolidin-3-amine] was at most 0.01 µM. The value for `COc1ccccc1C(=O)N[C@@H]1CN(S(=O)(=O)c2cn(C)cn2)C[C@H]1c1ccccc1` (relative stereo) [Example 20, 2-methoxy-N-{trans-1-[(1-methyl-1H-imidazol-4-yl)sulfonyl]-4-phenylpyrrolidin-3-yl}benzamide] was at most 10 µM.
